15 molecules from US8563714B2, “Bridged spiro [2.4] heptane derivatives as ALX receptor and/or FPRL2 agonists” (Actelion Pharmaceuticals Ltd., priority 2009, dated 2013) can be followed below.

Where only a bound is given, the exact number is not on record here.

One experiment deals with T1, human ALX receptor (Homo sapiens, UniProt P25090).
T1 construct: expressed in transfected cells; host or cells: HEK293 (HEK293-hALXR-Gα16)
T1 sequence (P25090 1-351): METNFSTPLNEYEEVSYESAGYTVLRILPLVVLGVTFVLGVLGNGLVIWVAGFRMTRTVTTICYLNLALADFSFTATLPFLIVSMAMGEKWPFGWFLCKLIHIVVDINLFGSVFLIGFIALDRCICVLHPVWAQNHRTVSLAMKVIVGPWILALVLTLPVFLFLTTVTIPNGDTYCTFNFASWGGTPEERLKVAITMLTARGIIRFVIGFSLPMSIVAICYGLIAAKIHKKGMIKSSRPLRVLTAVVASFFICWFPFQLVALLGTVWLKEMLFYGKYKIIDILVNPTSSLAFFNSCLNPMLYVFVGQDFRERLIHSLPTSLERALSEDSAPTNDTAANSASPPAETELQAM
The experiment in a line: Intracellular calcium measurements (FLIPR), agonistic activity in HEK293-hALXR-Gα16 cells. It counts as cell-based. The following applies: Fluo-4 calcium FLIPR, normalized to WKYMVm 10 nM. Put shortly:
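HEK293 cells expressing hALXR and Gα16 were loaded with 1 μM Fluo-4 AM and 20 mM HEPES for 60 min at 37°C, then exposed to serially diluted compound. FLIPR fluorescence was read at ex 488/em 540 nm. Baseline-subtracted peak responses were normalized to 10 nM WKYMVm.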

The next experiment deals with T2, human FPRL2 (Homo sapiens, UniProt P25089).
T2 construct: expressed in transfected cells; host or cells: HEK293 (HEK293-hFPRL2-Gα16)
T2 sequence (P25089 1-353): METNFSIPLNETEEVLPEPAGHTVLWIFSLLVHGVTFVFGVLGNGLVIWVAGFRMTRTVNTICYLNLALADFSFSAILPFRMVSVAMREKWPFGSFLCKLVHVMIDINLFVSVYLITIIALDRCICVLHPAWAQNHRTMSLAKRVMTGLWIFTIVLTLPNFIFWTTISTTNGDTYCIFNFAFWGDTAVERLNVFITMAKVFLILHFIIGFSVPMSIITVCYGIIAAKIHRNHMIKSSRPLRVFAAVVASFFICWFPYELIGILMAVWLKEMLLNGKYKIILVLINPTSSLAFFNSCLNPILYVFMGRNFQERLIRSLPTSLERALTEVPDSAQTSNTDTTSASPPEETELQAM
Kind of experiment: Intracellular calcium measurements (FLIPR), agonistic activity in HEK293-hFPRL2-Gα16 cells. It counts as cell-based. The following applies: Fluo-4 calcium FLIPR, normalized to GLY14-Humanin 100 nM. In short, it runs like this: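 Peak values after baseline subtraction are expressed relative to 100 nM Gly14-Humanin; compounds diluted in assay buffer from 10 mM DMSO stocks.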

Broadly, the EC50 is the concentration that produces a half-maximal response. With `CC(=O)c1csc(NC(=O)[C@H]2[C@H](C(=O)NCCCCN3CCCC3)[C@H]3C=C[C@@H]2C32CC2)n1` (racemic) [Example 344, (5R*)—N^5-(4-Acetyl-thiazol-2-yl)-(6R*)—N^6-(4-pyrrolidino-butyl)-(4S*,7R*)-[4,7-ethenylene-spiro[2.4]heptane]-5,6-dicarboxamide], the EC50 stood at 7850 nM at human ALX receptor and 414 nM on human FPRL2.
In the same order, the values of `O=C(NCC1CCCN1)[C@H]1[C@H](C(=O)Nc2ncc(Br)s2)[C@@H]2CC[C@H]1C21CC1` (stereo partly drawn) [Example 416, (5R)—N^5-(5-Bromothiazol-2-yl)-(6R)—N^6-[(pyrrolidin-2-yl)-methyl]-(4S,7R)-[4,7-ethylene-spiro[2.4]heptane]-5,6-dicarboxamide] are 8.3 nM and 479 nM.
The matching figures for `O=C(NCCCCN1CCCC1)[C@H]1[C@H](C(=O)Nc2c(F)cc(Br)cc2F)[C@@H]2C=C[C@H]1C21CC1` [Example 315, (5R)—N^5-(4-Bromo-2,6-difluorophenyl)-(6R)—N^6-(4-pyrrolidino-butyl)-(4S,7R)-[4,7-ethenylene-spiro[2.4]heptane]-5,6-dicarboxamide]: 9.4 nM and 296 nM.
The matching figures for `NCc1ccc(CNC(=O)[C@H]2[C@H](C(=O)NCc3ccc(Br)cc3)[C@@H]3C=C[C@H]2C32CC2)cc1` (racemic) [Example 309, (5R*)—N^5-(4-Bromophenyl-methyl)-(6R*)—N^6-(4-(aminomethyl)phenyl-methyl)-(4S*,7R*)-[4,7-ethenylene-spiro[2.4]heptane]-5,6-dicarboxamide]: 367 nM and 1340 nM.
Regarding `CCN(CC)CCCNC(=O)[C@H]1[C@H](C(=O)Nc2ccc(Br)cc2)[C@@H]2C=C[C@H]1C21CC1` (racemic) [Example 78, (5R*)—N^5-(4-Bromophenyl)-(6R*)—N^6-(3-diethyl-amino-propyl)-(4S*,7R*)-[4,7-ethenylene-spiro[2.4]heptane]-5,6-dicarboxamide], the EC50 on human ALX receptor was determined as 80 nM; on human FPRL2, 5480 nM.
As for `CC(C)C(=O)NC[C@H]1[C@H](C(=O)Nc2ccc(Br)cc2)[C@@H]2C=C[C@H]1C21CC1` (racemic) [Example 172, (5R*)—N^5-(4-Bromo-phenyl)-(6R*)-6-[(isobutyrylamino)-methyl]-(4S*,7R*)-[4,7-ethenylene-spiro[2.4]heptane]-5-carboxamide], the results for the EC50 on human ALX receptor and on human FPRL2 were 125 nM and 4610 nM, respectively.
In the case of `Cc1cc(C(=O)N(C)C[C@H]2[C@H](C(=O)Nc3ccc(Br)cc3)[C@@H]3C=C[C@H]2C32CC2)nn1C` (racemic) [Example 183, (5R*)—N^5-(4-Bromo-phenyl)-(6R*)-6-{[N-(1,5-dimethyl-1H-pyrazole-3-carbonyl)-N-methyl-amino]-methyl}-(4S*,7R*)-[4,7-ethenylene-spiro[2.4]heptane]-5-carboxamide], the EC50 worked out at 303 nM on human ALX receptor and 8900 nM on human FPRL2.
As to `O=C(NCCCCN1CCCC1)[C@H]1[C@H](C(=O)NCc2ccc(I)cc2)[C@@H]2C=C[C@H]1C21CC1` (racemic) [Example 200, (5R*)—N^5-(4-Iodophenyl-methyl)-(6R*)—N^6-(4-pyrrolidin-1-yl-butyl)-(4S*,7R*)-[4,7-ethenylene-spiro[2.4]heptane]-5,6-dicarboxamide], the EC50 on human ALX receptor was found to be 42 nM; at human FPRL2, 236 nM.
The matching figures for `Cc1ccc(CCNC(=O)[C@H]2[C@H](C(=O)NCCCCN3CCCC3)[C@H]3C=C[C@@H]2C32CC2)c(C)c1` (racemic) [Example 385, (5R*)—N^5-(2-(2,4-Dimethylphenyl)ethyl)-(6R*)—N^6-(4-pyrrolidino-butyl)-(4S*,7R*)-[4,7-ethenylene-spiro[2.4]heptane]-5,6-dicarboxamide]: above 25000 nM and 27 nM.
In the same order, the values of `O=C(NC1CCNCC1)[C@H]1[C@H](C(=O)Nc2ncc(Br)s2)[C@@H]2C=C[C@H]1C21CC1` [Example 323, (5R)—N^5-(5-Bromo-thiazol-2-yl)-(6R)—N^6-(piperidin-4-yl)-(4S,7R)-[4,7-ethenylene-spiro[2.4]heptane]-5,6-dicarboxamide] are 17 nM and 4690 nM.
In the same order, the values of `CC(C)(C)OC(=O)NCCCCNC(=O)[C@H]1[C@H](C(=O)Nc2ncc(Br)s2)[C@@H]2CC[C@H]1C21CC1` [Example 332, (5R)—N^5-(5-Bromo-thiazol-2-yl)-(6R)—N^6-(4-tert-butoxycarbonyl-amino-butyl)-(4S,7R)-[4,7-ethylene-spiro[2.4]heptane]-5,6-dicarboxamide] are 467 nM and 3540 nM.
For the molecule `CC(C)(C)c1cc(NC(=O)[C@H]2[C@H](C(=O)NCCCCN3CCCC3)[C@H]3C=C[C@@H]2C32CC2)no1` (racemic) [Example 145, (5R*)—N^5-(5-tert-Butyl-isoxazol-3-yl)-(6R*)—N^6-(4-pyrrolidin-1-yl-butyl)-(4S*,7R*)-[4,7-ethenylene-spiro[2.4]heptane]-5,6-dicarboxamide], the EC50 at human ALX receptor was 3650 nM; on human FPRL2, 647 nM.
The matching figures for `NCc1ccc(CNC(=O)[C@H]2[C@H](C(=O)Nc3ncc(Br)s3)[C@@H]3C=C[C@H]2C32CC2)cc1` (racemic) [Example 303, (5R*)—N^5-(5-Bromo-thiazol-2-yl)-(6R*)—N^6-(4-(aminomethyl)phenyl-methyl)-(4S*,7R*)-[4,7-ethenylene-spiro[2.4]heptane]-5,6-dicarboxamide]: 45 nM and 1340 nM.
The matching figures for `CC(C)(C)OC(=O)N1CCC(NC(=O)C2C(C(=O)Nc3ccc(Br)cc3)C3C=CC2C32CC2)C1` (mixture of isomers) [Example 14, (5R*)—N^5-(4-Bromophenyl)-(6R*)—N^6-(N-tert-butoxycarbonyl-pyrrolidin-3-yl)-(4S*,7R*)-[4,7-ethenylene-spiro[2.4]heptane]-5,6-dicarboxamide]: 1.2 nM and 1690 nM.
In the same order, the values of `Cn1c(CCNC(=O)[C@H]2[C@H](C(=O)NCCCCN3CCCC3)[C@H]3C=C[C@@H]2C32CC2)nc2ccccc21` (racemic) [Example 156, (5R*)—N^5-(2-(1-Methyl-1H-benzoimidazol-2-yl)-ethyl)-(6R*)—N^6-(4-pyrrolidin-1-yl-butyl)-(4S*,7R*)-[4,7-ethenylene-spiro[2.4]heptane]-5,6-dicarboxamide] are above 25000 nM and 623 nM.
